From patent publication US20240140895A1, “NOVEL AROMATIC MOLECULES” (XENIOPRO GmbH, priority 2018, published 2024) come the findings set out here.

Holding throughout (assay type): cell-based
Assay [1] deals with MDA-MB-231 cells (human breast carcinoma cells). The experiment in a line: Proliferation assay (alamarBlue) with MDA-MB-231 cells. Conditions: Homo sapiens, read-out: Activity Range: weighted arithmetic mean (AVEw) of normalized fluorescence intensity relative to DMSO basis level 1.0. From the text: (§1) The antiproliferative activities of compounds falling under formula (Ia), (Tb) and (Ic), respectively, were investigated on cells or cell lines originating from a disorder of the haematopoietic system, including the myeloid cell compartment and the lymphoid cell compartment (T-cells and B-cells), the neuroendocrine system, the cervix, the breast, the ovaries, the lung, the gastrointestinal tract, and the mucosal epithelium, as well as from the skin epithelium and from the muscle. To this end, HL-60 cells, NB-4 cells, HH cells, RPMI-8402 cells, TANOUE cells, TT cells, HeLa cells, MDA-MB-231 cells, FU-OV-1 cells, LOU-NH91 cells, 23132/87 cells, CAL-27 cells, BHY cells, SCC-25 cells, A-431 cells, human primary epidermal keratinocytes (HPEK), and C2C12 cells were seeded into 96-well plates suitable for fluorescence assays (CORNING #3598) at following initial cell numbers: 1000 cells per well for HL-60; 1000 cells per well for NB-4; 5000 cells per well for HH; 5000 cells per well for RPMI-8402; 1500 cells per well for TANOUE; 9000 cells per well for TT; 2000 cells per well for HeLa; 3000 cells per well for MDA-MB-231; 3000 cells per well for FU-OV-1; 4000 cells per well for LOU-NH91; 2000 cells per well for 23132/87; 2000 cells per well for CAL-27; 1500 cells per well for BHY; 1500 cells per well for SCC-25; 700 cells per well for A-431; 1000 cells per well for HPEK; 500 cells per well for C2-C12. The cells were treated with compounds at indicated final concentrations (diluted from the 1000× stock-solutions in DMSO to a final DMSO concentration of 0.1% v/v in H2O (Water For Injection, WFI, Fisherscientific #10378939)) or with the empty carrier DMSO at 0.1% v/v as control for 5 days. At day 5 after starting the treatments the cells were subjected to the alamarBlue® Proliferation Assay (Bio-Rad Serotec GmbH, BUF012B) according to the protocol of the manufacturer. The readout was taken with a multi-well plate-reader in the fluorescence mode with applying a filter for excitation at 560 nm (band width 10 nm) and for emission at 590 nm (band width 10 nm). Control treatments for growth inhibition with commercial compounds such as Methotrexate (MTREX) and Resveratrol (RES) were included on every plate. Some of the test compounds of the present invention were obtained and applied as their salts. According cases are indicated in the column “Specification” in Table 30 to Table 62 and by their sum formula in Table 63.
(§2) The assays were performed in duplicate or more replicates of independent single experiments each containing a six-fold replicate for every condition. For every individual plate, the measured fluorescence intensity values of the conditions with compound treatment were normalized against the corresponding equally weighted arithmetic mean of the fluorescence intensity values of the six DMSO treated control wells in order to obtain the relative values to a baseline level of 1.0.
(§3) Two independent outlier analyses were performed according to the methods by Peirce and Chauvenet (Ross, Journal of Engineering Technology 2003, 1-12). Outliers confirmed by at least one of the methods were excluded from the calculations but not more than one value out of six per compound within a single experiment. The weighted arithmetic mean (here abbreviated as AVEw) for each compound was calculated from the normalized values over all independent replicates of the single experiments comprising the six replicates each. The corresponding standard deviation for the weighted arithmetic mean was calculated according to the method described by Bronstein et al. (Bronstein, Semendjajew, Musiol, Muhlig, Taschenbuch der Mathematik, 5th edition 2001 (German), publisher: Verlag Harri Deutsch, Frankfurt am Main and Thun) and was combined with the Gauβ′ error propagation associated with the performed calculation for the normalization. The resulting standard deviation is herein referred to as “combined standard deviation”. […]
(In general: Resazurin is reduced to fluorescent resorufin, in cell work by metabolically active cells.)

For assay [2], the system named is HL-60 cells (human acute myeloid leukemia cells). Nature of the assay: Proliferation assay (alamarBlue) with HL-60 cells. The following applies: Homo sapiens, Table 30, compound at 20 μM, read-out: Activity Range (AVEw, weighted arithmetic mean of normalized fluorescence intensity, DMSO = 1.0).
Source text: as §1, §2, §3

Assay [3] relates to HPEKp cells (human epidermal keratinocyte progenitors, pooled). The experiment in a line: Proliferation assay (alamarBlue) with HPEKp cells. The following applies: compound at 10 μM, read-out: Activity Range: weighted arithmetic mean (AVEw) of normalized fluorescence intensity, relative to DMSO basis level 1.0.
Source text: as §1, §2, §3

The subject of assay [4] is A-431 cells (human epidermoid squamous cell carcinoma cells). The experiment in a line: Proliferation assay (alamarBlue) with A-431 cells. Conditions: Homo sapiens, 20 μM, read-out: Activity Range: weighted arithmetic mean (AVEw) of normalized fluorescence intensity relative to DMSO basis level 1.0.
Source text: as §1, §2, §3

Assay [5] has as its system BHY cells (human oral squamous cell carcinoma cells). The experiment in a line: Proliferation assay (alamarBlue) with BHY cells. Conditions: read-out: Activity Range: weighted arithmetic mean (AVEw) of normalized fluorescence intensity relative to DMSO basis level 1.0.
Source text: as §1, §2, §3

For assay [6], the system named is RPMI-8402 cells (human T cell acute lymphoblastic leukemia cells). Nature of the assay: Proliferation assay (alamarBlue) with RPMI-8402 cells. The following applies: Homo sapiens, read-out: Activity Range: weighted arithmetic mean (AVEw) of normalized fluorescence intensity relative to DMSO basis level 1.0.
Source text: as §1, §2, §3

Assay [7] relates to SCC-25 cells (human tongue squamous cell carcinoma cells). Nature of the assay: Proliferation assay (alamarBlue) with SCC-25 cells. Conditions: Homo sapiens, read-out: Activity Range: weighted arithmetic mean (AVEw) of normalized fluorescence intensity relative to DMSO basis level 1.0.
Source text: as §1, §2, §3

Assay [8] deals with TANOUE cells (human B cell leukemia cells). Nature of the assay: Proliferation assay (alamarBlue) with TANOUE cells. Conditions: Homo sapiens, B-cell, read-out: Activity Range: weighted arithmetic mean (AVEw) of normalized fluorescence intensity relative to DMSO basis level 1.0.
Source text: as §1, §2, §3

Assay [9] relates to NB-4 cells (human acute promyelocytic leukemia cells). Nature of the assay: Proliferation assay (alamarBlue) with NB-4 cells. Conditions: Homo sapiens, Table 32, compound at 20 μM, read-out: Activity Range (AVEw, weighted arithmetic mean of normalized fluorescence intensity, DMSO = 1.0).
Source text: as §1, §2, §3

The test system of assay [10] is C2C12 cells (murine myoblast cells). The experiment in a line: Proliferation assay (alamarBlue) with C2C12 cells. Conditions: Mus musculus, compound at 20 μM, read-out: Activity Range: weighted arithmetic mean (AVEw) of normalized fluorescence intensity, relative to DMSO basis level 1.0.
Source text: as §1, §2, §3

For assay [11], the system named is HH cells (human cutaneous T-cell lymphoma cells). Nature of the assay: Proliferation assay (alamarBlue) with HH cells. The following applies: Table 34, compound at 20 μM, read-out: Activity Range (AVEw, weighted arithmetic mean of normalized fluorescence intensity, DMSO = 1.0).
Source text: as §1, §2, §3

Assay [12] relates to CAL-27 cells (human tongue squamous cell carcinoma cells). The experiment in a line: Proliferation assay (alamarBlue) with CAL-27 cells. Conditions: read-out: Activity Range: weighted arithmetic mean (AVEw) of normalized fluorescence intensity relative to DMSO basis level 1.0.
Source text: as §1, §2, §3

Assay [13] concerns 23132/87 cells (human gastric adenocarcinoma cells). Nature of the assay: Proliferation assay (alamarBlue) with 23132/87 cells. The following applies: read-out: Activity Range: weighted arithmetic mean (AVEw) of normalized fluorescence intensity relative to DMSO basis level 1.0.
Source text: as §1, §2, §3

As to `OCc1ccc(Oc2ccc(C3CCCCC3)cc2)cc1` [XPA-0006, (4-(4-cyclohexylphenoxy)phenyl)methanol], the activity at 20 µM in [1] fell in the range of 60 to 70%; in [2], 80 to 90%; in assay [4], 70 to 80%; in assay [5], 80 to 90%; in [6], 60 to 70%. For the same compound, in assay [3], the activity at 10 µM fell in the range of 40 to 60%.

Take `O=Cc1ccc(Oc2ccc(C34CC5CC(CC(C5)C3)C4)cc2)cc1` [XPA-0028, 4-(4-(adamantan-1-yl)phenoxy)benzaldehyde]: the activity at 20 µM was in the range of 70 to 80% in assay [1]; 80 to 90% in [7]; 40 to 60% in assay [2]; 0 to 20% in [8]; 80 to 90% in [4]; 40 to 60% in assay [9]. Besides, the activity at 20 µM lay within 60 to 70% in assay [10] and 40 to 60% in assay [6]. Further, the activity at 10 µM in assay [3] lay within 0 to 20%.

Take `CN1CCC(c2ccc(Oc3ccc(C(=O)O)cc3)cc2)CC1` [XPA-0036, 4-(4-(1-methylpiperidin-4-yl)phenoxy)benzoic acid]: the activity at 20 µM in assay [1] lay in the range of 80 to 90%.

As for `CCOC(=O)c1ccc(Oc2ccc(CCN(C)C)cc2)cc1` [XPA-0060, ethyl 4-(4-(2-(dimethylamino)ethyl)phenoxy)benzoate], the activity at 20 µM fell in the range of 40 to 60% in assay [1]; 20 to 40% in assay [7]; 80 to 90% in assay [4]; 60 to 70% in assay [11]; 40 to 60% in assay [12]; 70 to 80% in [5]. The values for the activity at 20 µM in assay [9], in assay [10] and in [6] were 80 to 90%, 40 to 60% and 40 to 60%, respectively. Also, the activity at 10 µM in assay [3] is 20 to 40%.

For the compound `CCOC(=O)c1ccc(Oc2ccc(C3CCOCC3)cc2)cc1` [XPA-0063, ethyl 4-(4-(tetrahydro-2H-pyran-4-yl)phenoxy)benzoate], the activity at 20 µM in assay [1], in assay [8] and in assay [6] was 80 to 90% each time.

In the case of `CCOC(=O)c1ccc(Oc2ccc(C3CCN(C)CC3)cc2)cc1` [XPA-0064, ethyl 4-(4-(1-methylpiperidin-4-yl)phenoxy)benzoate], the activity at 20 µM was 40 to 60% in [1]; 0 to 20% in assay [7]; 70 to 80% in assay [2]; 0 to 20% in [8]; 0 to 20% in assay [4]; 40 to 60% in assay [11]. The activity at 20 µM lay in the range of 0 to 20% in assay [12]; 0 to 20% in assay [5]; 70 to 80% in assay [13]; 20 to 40% in [9]; 0 to 20% in assay [10]; 0 to 20% in assay [6]. In addition, the activity at 10 µM in assay [3] was 0 to 20%.

Take `OC1(c2ccc(Oc3ccc(C45CC6CC(CC(C6)C4)C5)cc3)cc2)COC1` [XPA-0140, 3-(4-(4-((3r,5r,7r)-adamantan-1-yl)phenoxy)phenyl)oxetan-3-ol]: the activity at 20 µM in assay [1] was 20 to 40%; in assay [7], 20 to 40%; in assay [2] it was 0 to 20%; in [8] it was 0 to 20%; in assay [4], 40 to 60%; in [11] it was 70 to 80%. In addition, the activity at 20 µM in [12] fell in the range of 20 to 40%; in [5] it was 70 to 80%; in [13] it was 70 to 80%; in [9], 60 to 70%; in assay [10] it was 70 to 80%; in [6] it was 20 to 40%. In addition, the activity at 10 µM in assay [3] lay within 0 to 20%.

Turning to `COC1(c2ccc(Oc3ccc(C4CCCCC4)cc3)cc2)COC1` [XPA-0146, 3-(4-(4-cyclohexylphenoxy)phenyl)-3-methoxyoxetane], the activity at 20 µM lay in the range of 0 to 20% in [1]; 20 to 40% in [2]; 0 to 20% in assay [8]; 20 to 40% in assay [4]; 20 to 40% in assay [12]; 70 to 80% in assay [5]. In addition, the activity at 20 µM in assay [13] lay within 60 to 70%; in assay [9], 80 to 90%; in assay [6], 20 to 40%. Moreover, the activity at 10 µM in [3] fell in the range of 60 to 70%.

Take `C=Cc1cc(C2CCCCC2)ccc1Oc1ccc(C(=O)OCC)cc1` [XPA-1284, ethyl 4-(4-cyclohexyl-2-vinylphenoxy)benzoate]: the activity at 20 µM in assay [1] is 20 to 40%; in assay [7], 70 to 80%; in assay [2], 0 to 20%; in assay [8], 0 to 20%; in assay [4] it was 40 to 60%; in [11] it was 60 to 70%. Also, the activity at 20 µM in assay [12] is 60 to 70%; in assay [13], 70 to 80%; in assay [9], 20 to 40%; in assay [10] it was 20 to 40%; in assay [6], 20 to 40%. In addition, the activity at 10 µM in [3] was 0 to 20%.

Turning to `CCOC(=O)c1ccc(Oc2ccc(C3CCCCC3)cc2C2CO2)cc1` (centres unmarked) [XPA-1290, ethyl 4-(4-cyclohexyl-2-(oxiran-2-yl)phenoxy)benzoate], the activity at 20 µM in assay [1] was in the range of 70 to 80%; in assay [8], 80 to 90%. Also, the activity at 10 µM in assay [3] fell in the range of 0 to 20%.

Take `CCOC(=O)c1ccc(Oc2ccc(C3CCCCC3)cc2C2CC2)cc1` [XPA-1295, ethyl 4-(4-cyclohexyl-2-cyclopropylphenoxy)benzoate]: the activity at 10 µM in assay [3] fell in the range of 70 to 80%.

Turning to `CCOC(=O)c1ncc(Oc2ccc(C34CC5CC(CC(C5)C3)C4)cc2)cn1` [XPA-1303, ethyl 5-(4-((3r,5r,7r)-adamantan-1-yl)phenoxy)pyrimidine-2-carboxylate], the activity at 20 µM in [8] and in assay [6] was 80 to 90% throughout.
